Literature values in PubChem BioAssay AID1259409 (Chemical Carcinogenesis Research Information System (CCRIS), 2018).

Tested on: rodent chemically induced tumor inhibition, incidence and multiplicity
Test: CCRIS tumor inhibitor studies
Details: Promoter: NONE USED

CCCCCCCCCc1ccc(O)cc1
tumour outcome (control, treated, inhibition, significance) (Carcinogen: 7,12-DIMETHYLBENZ[A]ANTHRACENE, 57-97-6, Dose [Inhibitor]: 0, 25 PPM IN DIET FOR 50 WK BEGINNING 1 WK POST-CARCINOGEN DOSE (STUDY DURATION: 51 WK), Route [Inhibitor]: ORAL, Species: RAT, Strain/Sex: SPRAGUE-DAWLEY/FEMALE, Target Tissue: Type of Lesion: OVARY: ADENOCARCINOMA, Dose [Carcinogen]: 0.01 ML OF 0.5% DMBA IN OLIVE OIL INTO THE LEFT OVARY, ONCE, UNDER PENTOBARBITAL ANESTHESIA): 7/20 (35%), 1/20 (5%), 86%, p=0.02 | tumour outcome (control, treated, inhibition, significance) (Carcinogen: 7,12-DIMETHYLBENZ[A]ANTHRACENE, 57-97-6, Dose [Inhibitor]: 0, 250 PPM IN DIET FOR 50 WK BEGINNING 1 WK POST-CARCINOGEN DOSE (STUDY DURATION: 51 WK), Route [Inhibitor]: ORAL, Species: RAT, Strain/Sex: SPRAGUE-DAWLEY/FEMALE, Target Tissue: Type of Lesion: OVARY: ADENOCARCINOMA, Dose [Carcinogen]: 0.01 ML OF 0.5% DMBA IN OLIVE OIL INTO THE LEFT OVARY, ONCE, UNDER PENTOBARBITAL ANESTHESIA): 7/20 (35%), 1/20 (5%), 86%, p=0.02

CC1(S(=O)(=O)O)CC(=O)c2ccccc2C1=O (configuration not stated)
tumour outcome (control, treated, inhibition, significance) (Carcinogen: 1,2-DIMETHYLHYDRAZINE, 540-73-8, Dose [Inhibitor]: 0, 20 MG/KG 3/WK FOR 24 WK BEGINNING FIRST WK OF CARCINOGEN TREATMENT (STUDY DURATION: 28 WK), Route [Inhibitor]: GAVAGE, Species: MOUSE, Strain/Sex: ICR/FEMALE, Target Tissue: Type of Lesion: COLON: TUMOR, Dose [Carcinogen]: 20 MG/KG 1/WK FOR 20 WK): 9/13 (69%), 4/13 (31%), 55%, p<0.05 | tumour outcome (control, treated, inhibition, significance) (Carcinogen: 1,2-DIMETHYLHYDRAZINE, 540-73-8, Dose [Inhibitor]: 0, 20 MG/KG 3/WK FOR 28 WK BEGINNING FIRST WK OF CARCINOGEN TREATMENT (STUDY DURATION: 28 WK), Route [Inhibitor]: GAVAGE, Species: MOUSE, Strain/Sex: ICR/FEMALE, Target Tissue: Type of Lesion: COLON: TUMOR, Dose [Carcinogen]: 20 MG/KG 1/WK FOR 20 WK): 13/13 (100%), 8/13 (62%), 38%, p<0.05 | tumour outcome (control, treated, inhibition, significance) (Carcinogen: 1,2-DIMETHYLHYDRAZINE, 540-73-8, Dose [Inhibitor]: 0, 40 MG/KG 3/WK FOR 24 WK BEGINNING FIRST WK OF CARCINOGEN TREATMENT (STUDY DURATION: 28 WK), Route [Inhibitor]: GAVAGE, Species: MOUSE, Strain/Sex: ICR/FEMALE, Target Tissue: Type of Lesion: COLON: TUMOR, Dose [Carcinogen]: 20 MG/KG 1/WK FOR 20 WK): 9/13 (69%), 4/13 (31%), 55%, p<0.05 | tumour outcome (control, treated, inhibition, significance) (Carcinogen: 1,2-DIMETHYLHYDRAZINE, 540-73-8, Dose [Inhibitor]: 0, 40 MG/KG 3/WK FOR 28 WK BEGINNING FIRST WK OF CARCINOGEN TREATMENT (STUDY DURATION: 28 WK), Route [Inhibitor]: GAVAGE, Species: MOUSE, Strain/Sex: ICR/FEMALE, Target Tissue: Type of Lesion: COLON: TUMOR, Dose [Carcinogen]: 20 MG/KG 1/WK FOR 20 WK): 13/13 (100%), 8/13 (62%), 38%, p<0.05

Cc1cc(O)cc(=O)o1
tumour outcome (control, treated, inhibition, significance) (Carcinogen: BENZO[A]PYRENE, 50-32-8, Dose [Inhibitor]: 0.034 MMOL/G IN DIET FOR 5 WK BEGINNING 1 WK PRIOR TO FIRST CARCINOGEN DOSE AND CONTINUING FOR 3 D POST LAST CARCINOGEN, Route [Inhibitor]: ORAL, Species: MOUSE, Strain/Sex: ICR/FEMALE, Target Tissue: Type of Lesion: FORESTOMACH: TUMOR, Dose [Carcinogen]: 1 MG IN 0.2 ML CORN OIL 2/WK FOR 4 WK STARTING): 94%, 85%, 10%, not significant
